ChEMBL document CHEMBL1201862, “PubChem BioAssay data set” (2004)
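The compound was tested at five concentrations on cells cultured in 96-well plates, with a 48-hour exposure period. Abbreviation: GI50, concentration required for 50% inhibition of growth.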 Active and inactive are the calls of the source. Cut-off read from the data, not from the text of the source: active = GI50 up to about 1.1 µM and inactive = higher.

Key:
Experiment in all cases: NCI anticancer screen, dose series, 48 h
NCI-H226 = system: NCI-H226
HT-29 = system: HT-29
HOP-62 = system: HOP-62
CCRF-CEM = system: CCRF-CEM
A498 = system: A498
MDA-MB-435 = system: MDA-MB-435
MOLT-4 = system: MOLT-4
OVCAR-4 = system: OVCAR-4
SF-268 = system: SF-268
HCC 2998 = system: HCC 2998
OVCAR-8 = system: OVCAR-8
SR = system: SR
EKVX = system: EKVX
RPMI-8226 = system: RPMI-8226
Hs-578T = system: Hs-578T
UACC-62 = system: UACC-62
Malme-3M = system: Malme-3M
IGROV-1 = system: IGROV-1
TK-10 = system: TK-10
MCF7 = system: MCF7

Measured: GI50

CCCC(=O)Nc1cc(/C=C/C(=O)N2CC(CCl)c3c2cc(O)c2[nH]cc(C)c32)n(C)c1 (stereo not drawn)
active: NCI-H226 < 2.5e-05 µM | HT-29 < 2.5e-05 µM | HOP-62 < 2.5e-05 µM | CCRF-CEM < 2.5e-05 µM | A498 < 2.5e-05 µM | MDA-MB-435 < 2.5e-05 µM | MOLT-4 < 2.5e-05 µM | OVCAR-4 < 2.5e-05 µM | SF-268 < 2.5e-05 µM | HCC 2998 < 2.5e-05 µM | OVCAR-8 < 2.5e-05 µM | SR < 2.5e-05 µM | EKVX < 2.5e-05 µM | RPMI-8226 5.49e-05 µM | Hs-578T < 2.5e-05 µM | UACC-62 < 2.5e-05 µM | Malme-3M < 2.5e-05 µM | IGROV-1 < 2.5e-05 µM | TK-10 < 2.5e-05 µM | MCF7 < 2.5e-05 µM

O=C(O)c1ccc(CI)cc1
inactive: NCI-H226 22.2 µM | HT-29 15.1 µM | HOP-62 20.3 µM | CCRF-CEM 9.57 µM | A498 20.8 µM | MDA-MB-435 17.4 µM | MOLT-4 15.3 µM | OVCAR-4 14.3 µM | SF-268 15.4 µM | HCC 2998 18 µM | OVCAR-8 21.9 µM | SR 21.6 µM | EKVX 19.5 µM | RPMI-8226 20.8 µM | Hs-578T 41 µM | UACC-62 10.8 µM | Malme-3M 10.6 µM | IGROV-1 21.1 µM | MCF7 14.3 µM

CCC/N=C/c1c(O)c(O)c(C(C)C)c2cc(C)c(-c3c(C)cc4c(C(C)C)c(O)c(O)c(/C=N/CCC)c4c3O)c(O)c12
inactive: NCI-H226 14.6 µM | HT-29 4.04 µM | HOP-62 10.2 µM | CCRF-CEM 1.54 µM | A498 11.2 µM | MDA-MB-435 10.7 µM | MOLT-4 3.41 µM | OVCAR-4 4.38 µM | SF-268 6.92 µM | HCC 2998 8.61 µM | OVCAR-8 6.46 µM | SR 3.46 µM | EKVX 7.19 µM | RPMI-8226 9.16 µM | Hs-578T 69.3 µM | UACC-62 5.78 µM | IGROV-1 11.1 µM | TK-10 > 100 µM | MCF7 14.7 µM

CN(C)/C=N/S(=O)(=O)c1nn2c(C=O)c(-c3ccc(Cl)cc3)nc2s1
inactive: NCI-H226 4.25 µM | HOP-62 13.2 µM | A498 16.2 µM | MDA-MB-435 2.16 µM | OVCAR-4 1.81 µM | SF-268 3.46 µM | HCC 2998 5.25 µM | OVCAR-8 1.31 µM | EKVX 3.28 µM | Hs-578T 3.43 µM | UACC-62 3.91 µM | Malme-3M 1.47 µM | TK-10 1.5 µM
active: HT-29 0.196 µM | CCRF-CEM 0.228 µM | MOLT-4 0.52 µM | SR 0.767 µM | RPMI-8226 0.785 µM | MCF7 0.897 µM

Nc1nc(NNc2ccccc2F)cc(=O)[nH]1
inactive: NCI-H226 > 100 µM | HT-29 > 100 µM | HOP-62 > 100 µM | CCRF-CEM 78.5 µM | A498 > 100 µM | MDA-MB-435 > 100 µM | MOLT-4 > 100 µM | OVCAR-4 > 100 µM | HCC 2998 > 100 µM | OVCAR-8 > 100 µM | SR > 100 µM | EKVX > 100 µM | RPMI-8226 54.2 µM | Hs-578T > 100 µM | Malme-3M > 100 µM | IGROV-1 > 100 µM | TK-10 > 100 µM | MCF7 > 100 µM

CCOC(=O)C(NC(=O)c1cccc(Cl)c1)(Nc1ccc(S(=O)(=O)Nc2cc(C)nc(C)n2)cc1)C(F)(F)F (stereo not drawn)
inactive: NCI-H226 > 100 µM | HT-29 > 100 µM | HOP-62 > 100 µM | CCRF-CEM > 100 µM | A498 > 100 µM | MDA-MB-435 > 100 µM | MOLT-4 > 100 µM | OVCAR-4 > 100 µM | SF-268 > 100 µM | HCC 2998 > 100 µM | OVCAR-8 > 100 µM | SR 68.7 µM | EKVX > 100 µM | RPMI-8226 > 100 µM | Hs-578T > 100 µM | Malme-3M > 100 µM | IGROV-1 > 100 µM | TK-10 > 100 µM | MCF7 > 100 µM

CCc1c(O)nc(Nc2nc3ccccc3[nH]2)[nH]c1=O
inactive: NCI-H226 > 100 µM | HT-29 > 100 µM | HOP-62 > 100 µM | CCRF-CEM > 100 µM | A498 > 100 µM | MDA-MB-435 > 100 µM | OVCAR-4 > 100 µM | SF-268 > 100 µM | HCC 2998 > 100 µM | OVCAR-8 > 100 µM | SR 92.9 µM | Hs-578T > 100 µM | UACC-62 > 100 µM | Malme-3M > 100 µM | IGROV-1 > 100 µM | TK-10 > 100 µM | MCF7 > 100 µM

CCc1nc(N)nc(N)c1-c1ccc(Cc2ccccc2)c([N+](=O)[O-])c1
inactive: NCI-H226 27.6 µM | A498 3.05 µM | OVCAR-4 16.6 µM | EKVX 5.53 µM | Hs-578T 12.3 µM | TK-10 29.5 µM
active: HT-29 < 0.01 µM | HOP-62 0.173 µM | CCRF-CEM < 0.01 µM | MDA-MB-435 < 0.01 µM | MOLT-4 < 0.0127 µM | SF-268 0.0192 µM | HCC 2998 0.151 µM | OVCAR-8 < 0.0153 µM | SR < 0.01 µM | RPMI-8226 0.0622 µM | UACC-62 < 0.0111 µM | IGROV-1 0.0702 µM | MCF7 0.0484 µM

CC(C)=CCC[C@](C)(O[C@@H]1O[C@H](CO)[C@@H](O)[C@H](O)[C@H]1O)[C@H]1CC[C@]2(C)[C@@H]1[C@H](O)C[C@@H]1[C@@]3(C)CC[C@H](O)C(C)(C)[C@@H]3[C@@H](O[C@@H]3O[C@H](CO)[C@@H](O)[C@H](O)[C@H]3O[C@@H]3O[C@@H](C)[C@H](O)[C@@H](O)[C@H]3O)C[C@]12C.CC(C)=CCC[C@](C)(O[C@@H]1O[C@H](CO)[C@@H](O)[C@H](O)[C@H]1O)[C@H]1CC[C@]2(C)[C@@H]1[C@H](O)C[C@@H]1[C@@]3(C)CC[C@H](O)C(C)(C)[C@@H]3[C@@H](O[C@@H]3O[C@H](CO)[C@@H](O)[C@H](O)[C@H]3O[C@@H]3O[C@H](CO)[C@@H](O)[C@H](O)[C@H]3O)C[C@]12C
inactive: NCI-H226 > 75 µM | HT-29 > 75 µM | HOP-62 22.9 µM | CCRF-CEM > 75 µM | A498 > 75 µM | MDA-MB-435 > 75 µM | MOLT-4 > 75 µM | OVCAR-4 > 75 µM | SF-268 54.3 µM | HCC 2998 > 75 µM | OVCAR-8 34.9 µM | SR 29.2 µM | EKVX > 75 µM | RPMI-8226 > 75 µM | Hs-578T 51.3 µM | UACC-62 > 75 µM | IGROV-1 > 75 µM | TK-10 > 75 µM | MCF7 > 75 µM

O=C(CSCC(=O)N/N=C\c1ccc(O)c(O)c1O)N/N=C\c1ccc(O)c(O)c1O
inactive: NCI-H226 26.2 µM | HT-29 11.6 µM | CCRF-CEM 1.73 µM | A498 29.7 µM | MDA-MB-435 1.97 µM | MOLT-4 3.15 µM | OVCAR-4 2.48 µM | SF-268 29.5 µM | HCC 2998 14.7 µM | OVCAR-8 2.31 µM | SR 2.33 µM | EKVX 21.3 µM | RPMI-8226 2.3 µM | Hs-578T 30.8 µM | UACC-62 15.6 µM | Malme-3M 22.6 µM | IGROV-1 19.8 µM | TK-10 24 µM | MCF7 3.8 µM
